Here are results for one compound from patent US10016409B2, “Method for improving interstitial flow” (priority 2012, dated 2018).

For one data set, the system named is dementia patients. In words: Retrospective clinical survey, MMSE change in dementia patients with first MMSE score less than or equal to 21. Type of data set: in vivo, human. An excerpt: Thus, it is not worth referring to these reports. It is assumed that a considerable degree of irreversible neurodegeneration has progressed in dementia patients, and in view of the action mechanism of the interstitial flow-improving agent, a sufficient therapeutic effect of the interstitial flow-improving agent might not be present for dementia patients. Thus, to evaluate the influence of consecutive oral administration of cilostazol on the cognitive function, a survey of consecutive cases (3183 cases in total) for which record of cilostazol administration between 1996 and 2012 exists was conducted, and examination was conducted by using all the cases matching the following conditions. In this study, to eliminate the influence of anti-dementia drugs, patients administered with anti-dementia drugs such as donepezil were removed from the analysis.
(i) The mini mental state exam (MMSE), which is a typical test of cognitive function, was conducted twice or more with an interval of 6 months or more (in a case where the MMSE was performed three or more times, two examination results of the first examination and the last examination were selected);
(ii) The first MMSE score was less than or equal to 21;
(iii) A case in which cilostazol was administered in a period at least more than a half of an MMSE observation period was selected as a group (hereinafter referred to as a treated group) subjected to consecutive treatment; and
(iv) A case in which cilostazol was administered in two months or less in an MMSE observation period was selected as a group (hereinafter referred to as an untreated group) not subjected to consecutive treatment.
(i) The rate of change in MMSE score in each group (calculation method: [last MMSE score−first MMSE score]/MMSE observation period [years]). In comparison between the two groups, statistical analysis was conducted such that the rate difference was obtained by using a chi-square test and other items were obtained by using a t test.

Another data set deals with MCI patients. The experiment in a line: Clinical record analysis, MMSE change in MCI patients (MMSE 22 to 26) under donepezil hydrochloride oral administration. The note with it: additional oral cilostazol in MCI patients under donepezil hydrochloride. Type of data set: in vivo, human.
In data set [1] the test system is Tg-SwDI mice. The experiment in a line: Perivascular Aβ deposition by immunohistochemical staining. Type of data set: in vivo. The conditions noted are these: vs ordinary feed group. An excerpt:
To verify interstitial flow improvement by cilostazol, inhibition of deposition of harmful proteins on the cerebrovascular lymph drainage pathway by cilostazol was examined by using a cerebral amyloid angiopathy model. Totally unlike a drainage system through a specific receptor or antigen-antibody reaction, drainage of harmful proteins through the interstitial flow is a general drainage system irrespective of the type and amount of proteins, and Aβ in these examples is merely an example of intracerebral harmful proteins for which the interstitial flow is improved so that deposition on the cerebrovascular lymph drainage pathway is inhibited.
After 15 months from the start of breeding, with respect to Tg-SwDI mice of a group administered with cilostazol-containing feed for 13.5 months and Tg-SwDI mice of the ordinary feed administered group, the brain was perfusion-fixed by using 4% paraformaldehide, and the extracted brain was dehydrated for one day. Then, a paraffin block of a fixed brain tissue was prepared, and a paraffin block was sliced to 6 microns with a microtome. […] An ImageJ (NIH) was used as image analysis software. Five regions of interest were randomly selected from the frontal lobe and the hippocampus region in a tissue section, and photographed in a field with a magnification of 200. The measured data was analyzed by using a t test.

In data set [2] the test system is Tg-SwDI mice. In words: Cerebral artery reactivity to CO2 supply (vascular pulsation driving force) in Tg-SwDI mice. Type of data set: in vivo. The conditions noted are these: vs ordinary feed group. An excerpt: In brain interstitial flow in a central nervous system, vascular wall motion caused by vascular pulsation of artery serves as a driving force so that harmful proteins are excreted (see Mechanisms to explain the reverse perivascular transport of solutes out of the brain. J Theor Biol. 2006 Feb. 21; 238(4): 962-74), Dilation of artery in vascular pulsation is caused by an increased blood pressure in artery due to pulsation of heart, and a decrease in dilation ability of artery attenuates vascular wall motion, and also reduces the interstitial flow. […] The degree of vascular elasticity in cerebral artery can be evaluated by using reactivity with a change in the concentration of blood carbon dioxide. Specifically, cerebral artery whose vascular elasticity and vascular pulsation driving force are maintained, has the ability of sufficiently dilating the vessel diameter afer an increase in the concentration of blood carbon dioxide, and maintains excretion ability for harmful proteins through h interstitial flow. On the other hand, cerebral artery whose vascular elasticity and vascular pulsation driving force are decreased, loses the ability of sufficiently dilating the vessel diameter in response to an increase in the concentration of blood carbon dioxide, and has its escretion ability for harmful proteins impaired. […]

Molecules are shown by their SMILES.

Source text for MCI patients: Patients subjected to oral administration of donepezil hydrochloride, having an observation period of one or more years before the MMSE test date, and having first MMSE scores less than or equal to 26 were picked up from a clinical record. Among the patients, patients recorded to have been consecutively administered with cilostazol for 6 months or more in the observation period were classified as a donepezil hydrochloride and cilostazol combined use group (69 cases), and patients recorded to have experienced no cilostazol oral administration were classified as a donepezil hydrochloride single use group (87 cases). Cilostazol was oral-administered at a dosage of 50 to 200 mg/day in the morning and evening, and donepezil hydrochloride was administered at a dosage of 5 mg/day once in a day. Among the patients, patients with MMSE scores greater than or equal to 22 and less than or equal to 26 were extracted as an MCI patient group. Then, 36 cases (16 males and 20 females, average age: 78.4 years old) of the donepezil hydrochloride single use group (hereinafter referred to as a single use group) and 34 cases (15 males and 19 females, average age: 77.2 years old) of the donepezil hydrochloride and cilostazol combined use group (hereinafter referred to as combined use group) were found. The average dosage of cilostazol in the combined use group was 121 mg/day. […] Measurement of MMSE was conducted at least twice in the observation period, and the first and last test results were selected for analysis.

`O=C1CCc2cc(OCCCCc3nnnn3C3CCCCC3)ccc2N1` [cilostazol, 6-[4-(1-cyclohexyl-1H-tetrazole-5-yl)butoxy]3,4-dihydrocarbostyril]: the “rate of change in MMSE score” value with dementia patients (dementia treated group (19 cases), first MMSE less than or equal to 21, average±standard error, P value 0.21 vs untreated) is recorded as 0.5±0.7 /year. Besides, the “therapeutic effects on dementia” value in the data set with dementia patients (first MMSE less than or equal to 21, treated vs untreated) is recorded as “no statistically significant therapeutic effects on dementia were observed”. For the same compound, in the data set with dementia patients (untreated group of dementia survey), the “side effects leading to no consecutive cilostazol treatment” value was “side effects such as diarrhea and headaches”. Further, the “reduction of the annual decrease rate of MMSE scores” value in the data set with MCI patients is “about 80%”. For the same compound, the “deposition of Aβ on the perivascular site” value with Tg-SwDI mice [1] (cilostazol-containing feed for 8 months from 4 months of age, FIG. 15) is “reduced”; in the data set with Tg-SwDI mice [1] (cilostazol-containing feed for 13.5 months from 1.5 months of age, FIG. 16), “reduced”. For the same compound, the “amount of Aβ deposited on a perivascular site” value in the data set with Tg-SwDI mice [1] (frontal lobe and hippocampus, FIGS. 13 and 14) was “smaller”. Moreover, the “cerebral artery vasodilation ability with the CO2 supply (relative increase in cerebrovascular diameter)” value with Tg-SwDI mice [2] (5% CO2, cilostazol-containing feed for 13.5 months, age 15 months, FIG. 5) was “significantly enhances cerebral artery vasodilation ability”. Moreover, the “cerebral artery vasodilation ability (relative increase rate of the vessel diameter) by the CO2 supply” value with Tg-SwDI mice [2] (cilostazol-containing feed for 8 months, age 12 months, FIG. 6) is “significantly increases the cerebral artery vasodilation ability”.
